In US20250092065A1, “2-(INDAZOL-5-YL)-6-(PIPERIDIN-4-YL)-1,7-NAPHTHYRIDINE DERIVATIVES AND RELATED COMPOUNDS AS MODULATORS FOR SPLICING NUCLEIC ACIDS AND FOR THE TREATMENT OF PROLIFERATIVE DISEASES” (REMIX THERAPEUTICS INC., priority 2022, published 2025):
Structures can show the parent of a compound that is named as a salt.

Legend:
K562 cells = assay: Cell Titer Glo 2.0 cell viability (toxicity) assay, K562; conditions: 500 cells/well, 72 hours
MYB = assay: HiBiT protein abundance assay, MYB (K562 HiBiT knock-in); format: cell-based, human; conditions: HiBiT knock-in K562 cells, 24 hours, top dose 10 μM
In short: (§1)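 Tagged-protein levels were measured as HiBiT/LgBiT luminescence in lysed K562 knock-in cells exposed to serially diluted compound (up to 10 μM final) for 24 hours. A four-parameter logistic regression of control-normalized signal yielded the IC50.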

HTT = assay: HiBiT protein abundance assay, HTT (K562 HiBiT knock-in); format: cell-based, human; conditions: HiBiT knock-in K562 cells, 24 hours, top dose 10 μM
In short: as §1

SMN2 mRNA = assay: RT-qPCR splicing assay, SMN2 mRNA; format: cell-based, human; conditions: Homo sapiens, canonical junction qPCR panel, Table 4; read-out: SMN2 IC50 (decrease in CJ mRNA levels)
In short: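 Splice switching quantified in compound-treated A673/K562 cells after 24 h exposure (top dose 10 uM, 3-fold steps, ≤0.25% DMSO), using CJ and AJ qPCR assays run at least in duplicate. RQ derived by 2^(−ΔΔCt), then percentage response.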

Target C = assay: HiBiT protein abundance assay, Target C (K562 HiBiT knock-in); format: cell-based, human; conditions: HiBiT knock-in K562 cells, 24 hours, top dose 10 μM
In short: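 K562 HiBiT knock-in cells (10000/well) were treated 24 h at 37° C with a 10-point 3-fold dilution series (top 10 μM final, ≤0.25% DMSO). HiBiT luminescence was read after lytic LgBiT detection. Percent response used unmodified K562 and DMSO-treated knock-in controls, and IC50 came from a four-parameter fit at 50% of untreated.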

Row | IC50 (MYB) [nM] | IC50 (HTT) [nM] | IC50 (SMN2 mRNA) [nM] | IC50 (Target C) [nM] | Structure (SMILES) | Effect of Exemplary Compounds on Cell Viability, K562 (K562 cells)
1 | 100 to 1000 | 1000 to 10000 | < 100 | 1000 to 10000 | C[C@@H]1CN(c2ccc3nc(-c4cc5cn(C)nc5c(F)c4O)nc(C(=O)NCCO)c3c2)C[C@H](C)N1 [Compound 737, 6-[(3R,5S)-3,5-dimethylpiperazin-1-yl]-2-(7-fluoro-6-hydroxy-2-methylindazol-5-yl)-N-(2-hydroxyethyl)quinazoline-4-carboxamide] | A (A represents <100 nM)
2 | 1000 to 10000 | 1000 to 10000 | 1000 to 10000 | 1000 to 10000 | C[C@@H]1CN(c2ccc3nc(-c4cc5cn(C)nc5c(F)c4O)ncc3c2)C[C@H](C)N1 [Compound 743, 5-{6-[(3R,5S)-3,5-dimethylpiperazin-1-yl]quinazolin-2-yl}-7-fluoro-2-methylindazol-6-ol] | C (C represents 1000-9999 nM)
3 | < 100 | < 100 | < 100 | < 100 | C[C@H]1CN(c2ccc3nc(-c4cc5cn(C)nc5c(F)c4O)ncc3c2)C[C@H](C)N1 [Compound 744, 5-{6-[(3S,5S)-3,5-dimethylpiperazin-1-yl]quinazolin-2-yl}-7-fluoro-2-methylindazol-6-ol] | A (A represents <100 nM)
4 | < 100 | 100 to 1000 | < 100 | 100 to 1000 | C[C@@H]1CN(c2ccc3nc(-c4cc5cn(C)nc5c(F)c4O)ncc3c2)C[C@@H](C)N1 [Compound 745, 5-{6-[(3R,5R)-3,5-dimethylpiperazin-1-yl]quinazolin-2-yl}-7-fluoro-2-methylindazol-6-ol] | A (A represents <100 nM)
5 | 100 to 1000 | > 10000 | 100 to 1000 | > 10000 | CN[C@@H]1CCN(c2cc3c(Cl)cc(-c4cc5cn(C)nc5c(C)c4O)nc3cc2C)C1 [Compound 748, 5-{4-chloro-7-methyl-6-[(3R)-3-(methylamino)pyrrolidin-1-yl]quinolin-2-yl}-2,7-dimethylindazol-6-ol] | B (B represents 100-1000 nM)
6 | 100 to 1000 | > 10000 | < 100 | > 10000 | CN[C@H]1CCN(c2cc3c(Cl)cc(-c4cc5cn(C)nc5c(C)c4O)nc3cc2C)C1 [Compound 749, 5-{4-chloro-7-methyl-6-[(3S)-3-(methylamino)pyrrolidin-1-yl]quinolin-2-yl}-2,7-dimethylindazol-6-ol] | B (B represents 100-1000 nM)

More lines, now with the values behind:

Row | Structure (SMILES) | IC50 (MYB) [nM] | IC50 (HTT) [nM] | IC50 (SMN2 mRNA) [nM] | IC50 (Target C) [nM] | Effect of Exemplary Compounds on Cell Viability, K562 (K562 cells)
7 | CNC(=O)c1nc(-c2cc3cn(C)nc3cc2O)nc2ccc(N3CCC(N(C)C)CC3)cc12 [Compound 742, 6-[4-(dimethylamino)piperidin-1-yl]-2-(6-hydroxy-2-methylindazol-5-yl)-N-methylquinazoline-4-carboxamide] | 100 to 1000 | 1000 to 10000 | < 100 | > 10000 | A (A represents <100 nM)
8 | Cn1cc2cc(-c3ncc4cc(N5CCC(N6CCC6)CC5)ccc4n3)c(O)c(F)c2n1 [Compound 750, 5-{6-[4-(azetidin-1-yl)piperidin-1-yl]quinazolin-2-yl}-7-fluoro-2-methylindazol-6-ol] | 100 to 1000 | 100 to 1000 | < 100 | 100 to 1000 | B (B represents 100-1000 nM)
9 | C[C@@H]1CN(c2ccc3nc(-c4cc5cn(C)nc5cc4O)ncc3c2)C[C@H](C)N1 [Compound 751, 5-{6-[(3R,5S)-3,5-dimethylpiperazin-1-yl]quinazolin-2-yl}-2-methylindazol-6-ol hydrochloride] | 100 to 1000 | > 10000 | < 100 | > 10000 | B (B represents 100-1000 nM)
10 | C[C@H]1CN(c2ccc3nc(-c4cc5cn(C)nc5cc4O)ncc3c2)C[C@H](C)N1 [Compound 752, 5-{6-[(3S,5S)-3,5-dimethylpiperazin-1-yl]quinazolin-2-yl}-2-methylindazol-6-ol] | < 100 | 100 to 1000 | < 100 | 100 to 1000 | B (B represents 100-1000 nM)
11 | C[C@@H]1CN(c2ccc3nc(-c4cc5cn(C)nc5cc4O)ncc3c2)C[C@@H](C)N1 [Compound 753, 5-{6-[(3R,5R)-3,5-dimethylpiperazin-1-yl]quinazolin-2-yl}-2-methylindazol-6-ol] | 100 to 1000 | 100 to 1000 | < 100 | 100 to 1000 | A (A represents <100 nM)
12 | CCN(CC)C1CCN(c2ccc3nc(-c4cc5cn(C)nc5c(F)c4O)ncc3c2)CC1 [Compound 756, 5-{6-[4-(diethylamino)piperidin-1-yl]quinazolin-2-yl}-7-fluoro-2-methylindazol-6-ol] | 100 to 1000 | 100 to 1000 | < 100 | 100 to 1000 | B (B represents 100-1000 nM)
